The text below walks through data of patent US12492164B2, “Fluorine substituted cyclohexene analogues of gamma-aminobutyric acid (GABA)” (Northwestern University, priority 2019, dated 2025).

The structures appear in SMILES notation. Structures can show the parent of a compound that is named as a salt. Where two headings read alike, the source gives them in different places.

The target in one assay is T1, GABA-AT (Sus scrofa, UniProt P80147).
T1 construct: GABA-AT was isolated from pig brains and purified according to a literature procedure; from tissue; host or cells: pig brain
T1 sequence (P80147 29-500): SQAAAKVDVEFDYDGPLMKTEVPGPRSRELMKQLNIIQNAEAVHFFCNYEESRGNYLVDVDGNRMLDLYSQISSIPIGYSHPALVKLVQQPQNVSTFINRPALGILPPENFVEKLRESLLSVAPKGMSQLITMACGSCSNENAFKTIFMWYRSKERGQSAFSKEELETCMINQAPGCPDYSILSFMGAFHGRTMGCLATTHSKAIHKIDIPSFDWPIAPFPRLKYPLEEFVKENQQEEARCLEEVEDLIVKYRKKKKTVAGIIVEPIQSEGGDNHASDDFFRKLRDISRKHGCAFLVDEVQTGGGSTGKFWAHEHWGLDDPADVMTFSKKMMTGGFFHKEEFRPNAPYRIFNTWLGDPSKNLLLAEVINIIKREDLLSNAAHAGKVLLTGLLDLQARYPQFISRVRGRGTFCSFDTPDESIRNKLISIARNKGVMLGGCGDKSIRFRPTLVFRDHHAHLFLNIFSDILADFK
The assay is described as follows: Coupled enzyme assay, time-dependent inactivation of GABA-AT. The class given is biochemical, pig. The protocol:
(§1) Kinetic Studies of Fluorine-Substituted Cyclohexene Analogues.
(§2) hOAT and PYCR1 were expressed, grown, and purified according to literature procedures.4, 5 GABA-AT was isolated from pig brains and purified according to a literature procedure.6 Coupled enzyme assays for GABA-AT, hOAT, Ala-AT, and Asp-AT were carried out according to previous procedures.7, 8

The target of another assay is T2, hOAT (Homo sapiens, UniProt P04181).
T2 construct: made in house
T2 sequence (P04181 26-439): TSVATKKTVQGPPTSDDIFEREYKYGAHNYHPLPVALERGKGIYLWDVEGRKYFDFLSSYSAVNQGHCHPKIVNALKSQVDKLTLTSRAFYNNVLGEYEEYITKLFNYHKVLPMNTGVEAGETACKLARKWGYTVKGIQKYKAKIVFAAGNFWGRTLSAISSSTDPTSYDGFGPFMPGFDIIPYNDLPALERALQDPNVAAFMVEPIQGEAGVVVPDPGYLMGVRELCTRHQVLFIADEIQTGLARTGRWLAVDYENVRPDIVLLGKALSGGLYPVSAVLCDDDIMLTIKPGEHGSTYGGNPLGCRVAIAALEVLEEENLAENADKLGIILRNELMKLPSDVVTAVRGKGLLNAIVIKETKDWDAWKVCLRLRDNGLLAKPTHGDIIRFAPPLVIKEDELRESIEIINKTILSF
In words: Coupled enzyme assay, time-dependent inactivation of hOAT. The class given is biochemical. The protocol: as §1, §2

The subject of another assay is HCC tumor. The note with it: doses of 0.1 and 1.0 mg/kg; cited from earlier work.
The mark [1] stands for this setting: inactivation of GABA-AT, pH 8.0.
Where [2] appears, read: inactivation of GABA-AT, pH 8.0, read-out: kinact/KI (converted).
Where [3] appears, read: read-out: kinact/KI (converted).
The mark [4] stands for this setting: GABA-AT, pH 8.0, bound: KI is greater than kobs (max)/ratio (footnote b).
[5] abbreviates: GABA-AT, pH 8.0, bound: kinact is greater than maximum kobs in time-dependent assay (footnote b).

One may read the kinact as the maximal first-order rate at which the target is inactivated. Turning to `N[C@H]1C[C@@H](C(=O)O)C[C@@H]1F` [Compound 1, (1R,3S,4S)-3-amino-4-fluorocyclopentane-1-carboxylic acid, reference compound], at GABA-AT (setting [1]), the Ki turned out to be 78 ± 40 µM. The kinact on GABA-AT (setting [1]) was 0.000283 s⁻¹. For the same molecule, the kinact/KI was 3.67 M⁻¹ s⁻¹ on GABA-AT (setting [2]) and 1 M⁻¹ s⁻¹ at hOAT (setting [3]).

On to `N[C@H]1C[C@@H](C(=O)O)CC1=C(C(F)(F)F)C(F)(F)F` [Compound 7, (1S,3S)-3-Amino-4-(hexafluoropropan-2-ylidenyl)cyclopentane-1-carboxylic Acid, reference compound], for which, on hOAT, the Ki was determined as 65 ± 10 µM, the kinact was found to be 0.00095 ± 5e-05 s⁻¹ and the kinact/KI is 14.5 M⁻¹ s⁻¹. In the assay on HCC tumor, the “in vivo HCC tumor growth” value is reported as “suppressed” and the “α-fetoprotein levels (a biomarker for HCC)” value was “dramatically reduced”.

`N[C@H]1C=C(C(=O)O)CC[C@@H]1F` [Compound 8, (3S,4S)-3-Amino-4-fluorocyclohex-1-ene-1-carboxylic acid hydrochloride]: the Ki on GABA-AT (setting [1]) is 2530 ± 710 µM; at hOAT, 31 ± 7 µM. For the same molecule, the kinact at GABA-AT (setting [1]) is 0.00163 s⁻¹; on hOAT (read-out: kinact (converted)), 0.00133 s⁻¹. The kinact/KI is 0.65 M⁻¹ s⁻¹ on GABA-AT (setting [2]) and 42.7 M⁻¹ s⁻¹ on hOAT (setting [3]).

Regarding `N[C@H]1C=C(C(=O)O)CCC1(F)F` [Compound 9, (S)-3-Amino-4,4-difluorocyclohex-1-ene-1-carboxylic acid hydrochloride], the Ki at GABA-AT (GABA-AT, pH 6.5) was 1100 µM; at GABA-AT (setting [4]), greater than 120 µM; at hOAT, 2.3 ± 0.7 µM. For the same molecule, the kinact on GABA-AT (GABA-AT, pH 6.5) is 0.00333 s⁻¹; at GABA-AT (setting [5]), greater than 0.003 s⁻¹; on hOAT (read-out: kinact (converted)), 0.0008 s⁻¹. In addition, the kinact/KI at GABA-AT (GABA-AT, pH 6.5, read-out: kinact/KI (converted)) was 3 M⁻¹ s⁻¹; on GABA-AT (GABA-AT, pH 8.0, ratio determined by the slope of kobs vs [I] (footnote b), read-out: kinact/KI (converted)), 25.3 M⁻¹ s⁻¹; at hOAT (setting [3]), 339 M⁻¹ s⁻¹.

Regarding `N[C@H]1CC(C(=O)O)=CC[C@@H]1F` [Compound 10, (4S,5S)-5-Amino-4-fluorocyclohex-1-ene-1-carboxylic acid hydrochloride], the Ki was found to be 4280 ± 2050 µM on GABA-AT (setting [1]) and 4380 ± 860 µM on hOAT. The kinact on GABA-AT (setting [1]) was 0.000467 s⁻¹; at hOAT (read-out: kinact (converted)) it was 0.00125 s⁻¹. Further, the kinact/KI on GABA-AT (setting [2]) is 0.108 M⁻¹ s⁻¹; at hOAT (setting [3]), 0.283 M⁻¹ s⁻¹.

Take `N[C@H]1CC(C(=O)O)=CCC1(F)F` [Compound 11, (S)-5-Amino-4,4-difluorocyclohex-1-ene-1-carboxylic acid hydrochloride]: the results for the Ki at GABA-AT (setting [4]) and at hOAT were greater than 9630 µM and 540 ± 17 µM, respectively. For the same molecule, the figures for the kinact at GABA-AT (setting [5]) and on hOAT (read-out: kinact (converted)) were greater than 0.00483 s⁻¹ and 0.00138 s⁻¹, respectively. Moreover, the kinact/KI on GABA-AT (pH 8) was 0.5 M⁻¹ s⁻¹; on hOAT (setting [3]), 2.5 M⁻¹ s⁻¹.
